# Measurements published in patent publication US20240251792A1, “WEED CONTROL METHOD” (SYNGENTA CROP PROTECTION AG, priority 2021, published 2024).
# Read-outs that look alike come from different tables or passages of the source.
# What was measured:
# Format in all cases: in vivo
# [1] = system: weeds and/or crops; assay: Post-emergence biological efficacy (Table 4); settings: evaluated after 13 days; for pest or weed control at 1000 g/ha / pest or weed control at 250 g/ha: 312 h; for pest or weed control at 1000 g/ha / damage to plant LOLPE (100=total damage; 0=no damage): 1000 g/ha
# Procedure, shortened: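 Scores are visual damage (0 = none, 100 = total), read 13 days after treatment at 24/18 °C with 15 h light. Plants had been sown in standard soil and grown 14 days before a spray of compound in F50/acetone, diluted with 0.2% Genapol X080.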
# [2] = system: IPOHE; assay: Pre-emergence biological efficacy (Table 3); settings: Ipomoea hederacea, 312 h, after 13 days, read-out: evaluation (100=total damage to plant; 0=no damage to plant)
# Procedure, shortened: (§1)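 Pre-emergence spray applied one day post-sowing; aqueous solution from 50 g/l AMA-based formulation in 0.2% Genapol X080. Evaluation at 13 days, 0 = no damage, 100 = total damage.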
# [3] = system: SETFA; assay: Pre-emergence biological efficacy (Table 3); settings: Setaria faberi, 312 h, after 13 days, read-out: evaluation (100=total damage to plant; 0=no damage to plant)
# Procedure, shortened: as §1
# [4] = system: LOLPE; assay: Pre-emergence biological efficacy (Table 3); settings: 1000 g/ha, after 13 days
# Procedure, shortened: as §1
# [5] = system: AMARE; assay: Pre-emergence biological efficacy (Table 3); settings: Amaranthus retroflexus, 312 h, after 13 days, read-out: evaluation (100=total damage to plant; 0=no damage to plant)
# Procedure, shortened: as §1
# [6] = system: ECHCG; assay: Pre-emergence biological efficacy (Table 3); settings: Echinochloa crus-galli, 312 h, after 13 days, read-out: evaluation (100=total damage to plant; 0=no damage to plant)
# Procedure, shortened: as §1
# [7] = system: ZEAMX; assay: Pre-emergence biological efficacy (Table 3); settings: 312 h, after 13 days, read-out: evaluation (100=total damage to plant; 0=no damage to plant)
# Procedure, shortened: as §1
# [8] = system: AMAPA; assay: Pre-emergence biological efficacy (Table 3); settings: 312 h, after 13 days, read-out: evaluation (100=total damage to plant; 0=no damage to plant)
# Procedure, shortened: as §1
# [9] = Amaranthus retroflexus, AMARE, read-out: damage to plant AMARE (100=total damage; 0=no damage)
# [10] = Echinochloa crus-galli, ECHCG, read-out: damage to plant ECHCG (100=total damage; 0=no damage)
# [11] = Ipomoea hederacea, IPOHE, read-out: damage to plant IPOHE (100=total damage; 0=no damage)
# [12] = Setaria faberi, SETFA, read-out: damage to plant SETFA (100=total damage; 0=no damage)
# [13] = AMAPA, read-out: damage to plant AMAPA (100=total damage; 0=no damage)
# [14] = ZEAMX, read-out: damage to plant ZEAMX (100=total damage; 0=no damage)
Compound,"pest or weed control at 1000 g/ha [1, 9]","pest or weed control at 1000 g/ha [1, 10]","pest or weed control at 1000 g/ha [1, 11]",damage to plant LOLPE (100=total damage; 0=no damage) [1],"pest or weed control at 1000 g/ha [1, 12]",pest or weed control at 1000 g/ha [2],pest or weed control at 1000 g/ha [3],evaluation (100=total damage to plant; 0=no damage to plant) [4],pest or weed control at 1000 g/ha [5],pest or weed control at 1000 g/ha [6],"pest or weed control at 1000 g/ha [1, 13]","pest or weed control at 1000 g/ha [1, 14]",plant injury at 1000 g/ha [7],pest or weed control at 1000 g/ha [8],also measured
"COc1cccc(Cl)c1C(F)(F)C(=O)O [Compound 1-65, 2-(2-Chloro-6-methoxy-phenyl)-2,2-difluoro-acetic acid]",70%,0%,70%,0,0%,40%,0%,0,60%,0%,–,–,–,–,–
"COc1c(Cl)ccc(Cl)c1C(F)(F)C(=O)O [Compound 1-326, 2-(3,6-dichloro-2-methoxy-phenyl)-2,2-difluoro-acetic acid]",80%,0%,80%,0,0%,20%,10%,10,50%,30%,–,–,–,–,–
"COC(=O)C(F)(F)c1c(Cl)ccc(Cl)c1OC [Compound 2-326, methyl 2-(3,6-dichloro-2-methoxy-phenyl)-2,2-difluoro-acetate]",70%,0%,40%,0,0%,40%,10%,10,40%,20%,–,–,–,–,–
"COc1c(C(F)(F)F)cccc1C(F)(F)C(=O)O [Compound 1-464, 2,2-Difluoro-2-[2-methoxy-3-(trifluoromethyl)phenyl]acetic acid]",–,–,–,–,–,–,–,–,–,–,–,–,–,–,"pest or weed control at 250 g/ha [1, 13]: 80%; pest or weed control at 250 g/ha [1, 14]: 10%; pest or weed control at 250 g/ha [1, 9]: 80%; pest or weed control at 250 g/ha [1, 10]: 70%; pest or weed control at 250 g/ha [1, 11]: 60%; pest or weed control at 250 g/ha [1, 12]: 70%; plant injury at 250 g/ha ([7]; 250 g/ha): 20%; pest or weed control at 250 g/ha ([2]; 250 g/ha): 50%; pest or weed control at 250 g/ha ([3]; 250 g/ha): 30%; pest or weed control at 250 g/ha ([5]; 250 g/ha): 40%; pest or weed control at 250 g/ha ([6]; 250 g/ha): 10%; pest or weed control at 250 g/ha ([8]; 250 g/ha): 60%"
"O=C(O)C(F)(F)c1cccc(Cl)c1OC(F)F [Compound 1-452, 2-[3-Chloro-2-(difluoromethoxy)phenyl]-2,2-difluoro-acetic acid]",80%,50%,70%,–,50%,70%,30%,–,50%,10%,80%,40%,30%,50%,–
"O=C(O)C(F)(F)c1cccc(OC(F)F)c1Cl [Compound 1-459, 2-[2-Chloro-3-(difluoromethoxy)phenyl]-2,2-difluoro-acetic acid]",80%,40%,90%,–,60%,90%,100%,–,70%,50%,80%,20%,0%,80%,–
"COC(=O)c1c(Cl)cccc1C(F)(F)C(=O)O [Compound 1-444, 2-(3-Chloro-2-methoxycarbonyl-phenyl)-2,2-difluoro-acetic acid]",70%,10%,50%,–,20%,50%,0%,–,40%,0%,60%,10%,0%,60%,–
